Results: article PMC6153434, “Bystander Effects of Hypoxia-Activated Prodrugs: Agent-Based Modeling Using Three Dimensional Cell Cultures” (Frontiers in Pharmacology, 2018)

Key:
[1] = test system: high-POR 'activator' HCT116 cells in spheroids; assay: Spheroid clonogenic assay under anoxia (activators in co-culture spheroids); format: cell-based; details: spheroids comprising 100% activators, anoxic exposure 1 h (Figure 9B)
[2] = test system: POR-null 'target' HCT116 cell lines (PORko-R, PORko-G); assay: Monolayer clonogenic assay under anoxia (targets); format: cell-based; details: monolayer cultures, anoxic exposure 1 h (used for ABM analysis, Figure 9A)
Text: Log-phase cells were trypsinized and cell pellets, collected by centrifugation, were transferred to a Bactron anaerobic chamber (Sheldon Manufacturing Inc., Cornelius, OR, United States) under 3–5% H2/5% CO2/balance N2, <100 ppm O2, with a palladium/activated carbon catalyst to maintain anoxia. (The term “anoxia” is used throughout to refer to the gas phase, without necessarily implying complete anoxia in monolayers or spheroids as discussed below.) Cells were resuspended and seeded at 10^5 cells/0.15 mL in 96-well plates using medium and plates equilibrated in the chamber for 3 days to ensure complete deoxygenation. After incubation at 37 °C for 2 h for cell attachment, cells were exposed to drugs for 1 h, removed from the chamber, trypsinized, counted with a Coulter counter (model Z2; Beckman Coulter^TM, Indianapolis, IN, United States) and plated in 6-well plates. After 10 days, plates were stained with methylene blue (2 g/L in EtOH:H2O, 1:1 v/v) and colonies with more than 50 cells were counted. Plating efficiency (PE) was calculated as number of colonies/number of cells plated, and surviving fraction (SF) was determined as PE(drug treated)/PE(control).

[3] = test system: POR-null 'target' HCT116 cells in spheroids; format: cell-based
HCT116 and HCT116/POR#6 = details: cited from earlier work
[4] = test system: high-POR 'activator' HCT116 cell lines (POR-R, POR-G); format: cell-based; details: monolayer cultures
[5] = test system: POR-G activators and PORko-R targets (HCT116)
[6] = published value, PR104H+M model, ref Foehrenbacher et al., 2013
[7] = published value, ref Foehrenbacher et al., 2013

CS(=O)(=O)OCCN(CCBr)c1c(C(=O)NCCO)cc([N+](=O)[O-])cc1[N+](=O)[O-] [PR104A]
concentration giving 90% kill in spheroids [1]: 5 µM | PR-104A concentration giving 90% kill [2]: 17 µM | killing of target cells as proportion of activators increases ([3]; co-culture spheroids 0, 10, 50 or 100% activators, 1 h under anoxia): markedly increased with increasing proportion of POR-G activator cells | bystander effect ([3]; spheroid co-cultures with ABM simulation, anoxia): clearly demonstrated the existence of a bystander effect | concentration giving 90% kill in spheroids ([3]; spheroids comprising 100% targets, anoxic exposure 1 h (Figure 9B)): 20 µM | Half-life, non-enzymatic loss in culture medium (HCT116 and HCT116/POR#6; 37 °C, published value, PR104H+M model, ref Foehrenbacher et al., 2013): 10.2 h | Activator Kmet,0, rate constant for the maximum rate of metabolism in activator cells under anoxia (HCT116 and HCT116/POR#6; [6]): 1.08 min⁻¹ | Kc, intrinsic cytotoxic potency (HCT116 and HCT116/POR#6; [6]): 0 M⁻¹ s⁻¹ | Kin, rate constant for transfer from the extracellular to the intracellular compartment (HCT116 and HCT116/POR#6; [6]): 3 min⁻¹ | Kout, rate constant for transfer from the intracellular to the extracellular compartment (HCT116 and HCT116/POR#6; [6]): 0.5 min⁻¹ | Target Kmet,0, rate constants for the maximum rate of metabolism in target cells under anoxia (HCT116 and HCT116/POR#6; [6]): 0.054 min⁻¹ | Activator F2, proportion of O2-dependent rate of metabolism of the drug in activators (HCT116 and HCT116/POR#6; [7]): 0.977 | Hill parameter n (HCT116 and HCT116/POR#6; [7]): 1 | Target F2, proportion of O2-dependent rate of metabolism of the drug in targets (HCT116 and HCT116/POR#6; [7]): 0.977 | KO2, O2 concentration for half-maximum prodrug activation (HCT116 and HCT116/POR#6; published value, ref Hicks et al., 2007): 0.126 | KO2 (sensitivity of PR104A metabolism to oxygen) (HCT116 and HCT116/POR#6; ref Hicks et al., 2007): 0.126 µM | half-life (physchem): 10.2 h | PR-104A concentration giving 90% kill ([4]; activators, anoxic exposure 1 h (used for ABM analysis, Figure 9A)): 1 µM | sensitivity of activator cell lines (clonogenic survival) ([4]; 1 h under anoxia, relative to targets): marked increases in the sensitivity | Activator F2, proportion of O2-dependent rate of metabolism of the drug in activators [5]: 0.977 | Activator Kmet,0, rate constant for the maximum rate of metabolism in activator cells under anoxia [5]: 2 min⁻¹ | Hill parameter n [5]: 2 | KO2, O2 concentration for half-maximum prodrug activation [5]: 0.126 | Kc, intrinsic cytotoxic potency [5]: 0 M⁻¹ s⁻¹ | Kin, rate constant for transfer from the extracellular to the intracellular compartment [5]: 3 min⁻¹ | Kout, rate constant for transfer from the intracellular to the extracellular compartment [5]: 0.5 min⁻¹ | Target F2, proportion of O2-dependent rate of metabolism of the drug in targets [5]: 0.977 | Target Kmet,0, rate constants for the maximum rate of metabolism in target cells under anoxia [5]: 0.03 min⁻¹
